According to patent US7868026B2, “Therapeutic compounds” (Pfizer Inc., priority 2005, dated 2011):
pIC50, pKi: −log10 of the molar value. Where two headings read alike, the source gives them in different places.

What was measured:
CYP3A4 [1] = target: T1, CYP3A4 (Homo sapiens, UniProt P08684); assay: Determination of compound Kiapp against recombinant CYP3A4 enzyme (BFC fluorescent substrate); type: biochemical
Description: 1. Determination of compound Kiapp
A determination of the Kiapp of the compounds of the invention against recombinant CYP3A4 enzyme was performed as follows. The assay was performed in a 100 mM sodium phosphate buffer pH 7.0, 5 mM TCEP and containing 2% dimethylformamide (final concentration) upon addition of substrate and inhibitor. A typical reaction for the determination of Kiapp values was carried at room temperature in a solid black Costar u-bottom 96-well polypropylene plate. In each well, recombinant CYP3A4 enzyme (5.5 nM or 8 nM, final concentration depending on the commercial source of the enzyme) was pre-incubated in the presence of the inhibitor for at least 30 minutes in the assay buffer. When pre-incubation was completed (˜30 min), the reaction was initiated by adding NADPH (200 uM, final concentration), and 7-benzyloxy-4-(trifluoromethyl)-coumarin (BFC) (5 uM, final concentration). The oxidation of the coumarin substrate was recorded by a 96-well plate reader POLARstar (BMG LABTECH, Offenburg, Germany).
The initial reaction velocities were measured during the first 5 min of the reaction when the release of the fluorescent product is linear with time, in the absence and in the presence of various concentrations of inhibitors. For non-partial & partial inhibitors, the Kiapp values were determined by using the equation for tight-binding inhibitor developed by Morrison, J F (Morrison J F. Biochim Biophys Acta. 1969, 185: 269-86) and by Szedlaseck S E et al. (Szedlascek, S. E., Ostafe, V., Serban, M., and Vlad, M.O. Biochem. J. 1988, 254:311-312), respectively.
The fluorescent substrate BFC was purchased from Sigma (St Louis, Mo.). Two commercial sources of recombinant enzymes were used in this study: recombinant CYP3A4−b5 enzyme (Baculosomes®) was purchased from Invitrogen (Carlsbad, Calif.) and the recombinant CYP3A4+b5 enzyme (Supersomes®) was purchased from BD Biosciences (Woburn, Mass.).

CYP3A4 [2] = target: T1, CYP3A4; assay: Determination of IC50 against CYP3A4 by measurement of inhibition of midazolam metabolism (human liver microsomes, 1-hydroxymidazolam by LC-MS/MS); type: biochemical; parameters: 0.1 mg/mL human liver microsomes; conditions: 2 μM midazolam, 0.1 mg/mL human liver microsomes
Description: 3. Determination of IC50 Against CYP3A4 by Measurement of Inhibition of Midazolam Metabolism
This assay was performed using a standard 96 well plate design. […] The incubation substrate mix contains 2 μM midazolam, 0.1 mg/mL human liver microsomes, 1 mM NADPH, and potassium phosphate buffer (100 mM, pH 7.4). Quantitation of metabolite peak area ratio against internal standard is determined by LC-MS/MS analysis. The production of 1-hydroxymidazolam from midazolam metabolism is determined after incubation for eight minutes by comparison to a standard curve generated for the metabolite.
Samples were analyzed in the MRM mode using a Sciex API 3000 mass spectrometer (Applied Biosystems, Foster City, Calif.) with a Paradigm MS4 binary pump (Michrom BioResources Inc., Auburn, Calif.) and a LEAP CTC PAL autosampler (LEAP Technologies, Carrboro, N.C.). A Phenomenex Synergi, 4μ, Polar-RP, 10×2.0 mm column (Phenomenex, Torrance, Calif.) was used for separation with a mobile phase composition of: 0.1% formic acid in water (A) and: 0.1% formic acid in methanol (B). The following gradient was used: […]
The sample injection volume was 10 μL and flow was split post-column with 0.4 mL/min going to the mass spectrometer. Analysis was performed using the following API 3000 mass spectrometer settings: […]

[3] = Baculo. enzyme preparation, read-out: Kiapp (BFC, Baculo.)
[4] = Super. enzyme preparation, read-out: Kiapp (BFC, Super.)

T1 sequence (P08684 whole entry): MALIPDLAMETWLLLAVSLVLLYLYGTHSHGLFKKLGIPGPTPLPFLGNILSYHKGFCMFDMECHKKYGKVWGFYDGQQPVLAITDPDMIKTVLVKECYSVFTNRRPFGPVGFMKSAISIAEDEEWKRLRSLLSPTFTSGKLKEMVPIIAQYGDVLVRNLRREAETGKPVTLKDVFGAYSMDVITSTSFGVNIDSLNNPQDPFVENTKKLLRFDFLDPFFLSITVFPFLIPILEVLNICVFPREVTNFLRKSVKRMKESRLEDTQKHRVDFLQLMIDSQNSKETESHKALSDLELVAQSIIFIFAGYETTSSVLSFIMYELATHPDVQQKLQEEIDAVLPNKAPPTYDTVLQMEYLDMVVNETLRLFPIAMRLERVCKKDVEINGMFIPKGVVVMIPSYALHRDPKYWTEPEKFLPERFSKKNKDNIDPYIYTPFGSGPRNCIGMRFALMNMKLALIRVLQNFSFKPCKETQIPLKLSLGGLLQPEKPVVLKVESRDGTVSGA

COc1ccccc1CNC(=O)c1ccccc1S(=O)(=O)Nc1cncc(C)c1 [Example 93, N-(2-methoxybenzyl)-2-{[(5-methylpyridin-3-yl)amino]sulfonyl}benzamide]
pKi (CYP3A4 [1]; [3]): 6.78
pKi (CYP3A4 [1]; [4]): 7.83
pIC50 (CYP3A4 [2]): 8.00

COc1cncc(NS(=O)(=O)c2ccccc2C(=O)NCc2ccc(Cl)c(F)c2)c1 [Example 132, N-(4-chloro-3-fluorobenzyl)-2-{[(5-methoxypyridin-3-yl)amino]sulfonyl}benzamide]
pKi (CYP3A4 [1]; [3]): 7.39
pKi (CYP3A4 [1]; [4]): 8.08
pIC50 (CYP3A4 [2]): 8.10

COc1cncc(NS(=O)(=O)c2ccccc2C(=O)NCc2cc(F)ccc2F)c1 [Example 147, N-(2,5-difluorobenzyl)-2-{[(5-methoxypyridin-3-yl)amino]sulfonyl}benzamide]
pKi (CYP3A4 [1]; [3]): 6.68
pKi (CYP3A4 [1]; [4]): 7.72
pIC50 (CYP3A4 [2]): 7.80

COc1cncc(NS(=O)(=O)c2ccccc2C(=O)NCCc2ccc(C)c(F)c2F)c1 [Example 136, N-[2-(2,3-difluoro-4-methylphenyl)ethyl]-2-{[(5-methoxypyridin-3-yl)amino]sulfonyl}benzamide]
pKi (CYP3A4 [1]; [3]): 7.22
pKi (CYP3A4 [1]; [4]): 8.32
pIC50 (CYP3A4 [2]): 8.00

CCOc1ccncc1NS(=O)(=O)c1ccccc1C(=O)N(C)Cc1ccc(F)cc1 [Example 142, 2-{[(4-ethoxypyridin-3-yl)amino]sulfonyl}-N-(4-fluorobenzyl)-N-methylbenzamide]
pKi (CYP3A4 [1]; [3]): 6.95
pKi (CYP3A4 [1]; [4]): 7.93
pIC50 (CYP3A4 [2]): 7.59

CCN(C(=O)c1ccccc1S(=O)(=O)Nc1cncc(OC)c1)C(C)C [Example 109, N-ethyl-N-isopropyl-2-{[(5-methoxypyridin-3-yl)amino]sulfonyl}benzamide]
pKi (CYP3A4 [1]; [3]): 6.67
pKi (CYP3A4 [1]; [4]): 7.43
pIC50 (CYP3A4 [2]): 7.46

COc1cncc(NS(=O)(=O)c2ccccc2C(=O)NCc2ccc(C)c(Cl)c2)c1 [Example 138, N-(3-chloro-4-methylbenzyl)-2-{[(5-methoxypyridin-3-yl)amino]sulfonyl}benzamide]
pKi (CYP3A4 [1]; [3]): 7.71
pKi (CYP3A4 [1]; [4]): 8.57
pIC50 (CYP3A4 [2]): 7.80

CCOc1ccncc1NS(=O)(=O)c1ccccc1C(=O)N[C@H](C)C(C)C [Example 110, N-[(1R)-12-dimethylpropyl]-2-{[(4-ethoxypyridin-3-yl)amino]sulfonyl}benzamide]
pKi (CYP3A4 [1]; [3]): 6.81
pKi (CYP3A4 [1]; [4]): 7.30
pIC50 (CYP3A4 [2]): 7.59

CCOc1ccncc1NS(=O)(=O)c1ccccc1C(=O)NC(C)CC (stereo not drawn) [Example 119, N-(sec-butyl)-2-{[(4-ethoxypyridin-3-yl)amino]sulfonyl}benzamide]
pKi (CYP3A4 [1]; [3]): 6.60
pKi (CYP3A4 [1]; [4]): 7.15
pIC50 (CYP3A4 [2]): 7.35

CC[C@@H](C)NC(=O)c1ccccc1S(=O)(=O)Nc1cncc(OC)c1 [Example 101, 2-{[(5-methoxypyridin-3-yl)amino]sulfonyl}-N-[(1R) -1-methylpropyl]benzamide]
pKi (CYP3A4 [1]; [3]): 6.61
pKi (CYP3A4 [1]; [4]): 7.26
pIC50 (CYP3A4 [2]): 7.59

COc1ccncc1NS(=O)(=O)c1ccccc1C(=O)N(C)Cc1cccc(F)c1 [Example 104, N-(3-fluorobenzyl)-2-{[(4-methoxypyridin-3-yl)amino]sulfonyl}-N-methylbenzamide]
pKi (CYP3A4 [1]; [3]): 6.85
pKi (CYP3A4 [1]; [4]): 7.63
pIC50 (CYP3A4 [2]): 7.46

COCCN(C(=O)c1ccccc1S(=O)(=O)Nc1cncc(N)c1)C(C)C [Example 114, 2-{[(5-aminopyridin-3-yl)amino]sulfonyl}-N-isopropyl-N-(2-methoxyethyl)benzamide]
pKi (CYP3A4 [1]; [3]): 6.33
pKi (CYP3A4 [1]; [4]): 6.98
pIC50 (CYP3A4 [2]): 6.87

COc1ccncc1NS(=O)(=O)c1ccccc1C(=O)N[C@@H](C)C(C)C [Example 108]
pKi (CYP3A4 [1]; [3]): 6.30
pKi (CYP3A4 [1]; [4]): 6.94
pIC50 (CYP3A4 [2]): 7.01

Cc1cncc(NS(=O)(=O)c2ccccc2C(=O)N(C)Cc2ccccc2F)c1 [Example 129, N-(2-fluorobenzyl)-N-methyl-2-{[(5-methylpyridin-3-yl)amino]sulfonyl}benzamide]
pKi (CYP3A4 [1]; [3]): 7.06
pKi (CYP3A4 [1]; [4]): 8.02
pIC50 (CYP3A4 [2]): 7.92

COc1cncc(NS(=O)(=O)c2ccccc2C(=O)NC(C)Cc2ccc(F)c(F)c2)c1 (stereo not drawn) [Example 135]
pKi (CYP3A4 [1]; [3]): 7.61
pKi (CYP3A4 [1]; [4]): 8.31
pIC50 (CYP3A4 [2]): 7.74

CCOc1ccncc1NS(=O)(=O)c1ccccc1C(=O)N[C@@H](C)C(C)C [Example 107, N-[(1S)-12-dimethylpropyl]-2-{[(4-ethoxypyridin-3-yl)amino]sulfonyl}benzamide]
pKi (CYP3A4 [1]; [3]): 6.67
pKi (CYP3A4 [1]; [4]): 7.36
pIC50 (CYP3A4 [2]): 7.24

Cc1cncc(NS(=O)(=O)c2ccccc2C(=O)NC(C)CC(C)C)c1 (stereo not drawn) [Example 95, N-(1,3-dimethylbutyl)-2-{[(5-methylpyridin-3-yl)amino]sulfonyl}benzamide]
pKi (CYP3A4 [1]; [3]): 7.11
pKi (CYP3A4 [1]; [4]): 7.60
pIC50 (CYP3A4 [2]): 8.10

CCC(C)CNC(=O)c1ccccc1S(=O)(=O)Nc1cncc(C)c1 (stereo not drawn) [Example 118, N-(2-methylbutyl)-2-{[(5-methylpyridin-3-yl)amino]sulfonyl}benzamide]
pKi (CYP3A4 [1]; [3]): 6.99
pKi (CYP3A4 [1]; [4]): 7.87
pIC50 (CYP3A4 [2]): 7.74

Cc1cncc(NS(=O)(=O)c2ccccc2C(=O)N(C)Cc2ccc(F)cc2)c1 [Example 146, N-(4-fluorobenzyl)-N-methyl-2-{[(5-methylpyridin-3-yl)amino]sulfonyl}benzamide]
pKi (CYP3A4 [1]; [3]): 7.26
pKi (CYP3A4 [1]; [4]): 8.07
pIC50 (CYP3A4 [2]): 7.96

COc1ccncc1NS(=O)(=O)c1ccccc1C(=O)N(C)Cc1ccc(C(F)(F)F)cc1 [Example 123, 2-{[(4-methoxypyridin-3-yl)amino]sulfonyl}-N-methyl-N-[4-(trifluoromethyl)benzyl]benzamide]
pKi (CYP3A4 [1]; [3]): 7.14
pKi (CYP3A4 [1]; [4]): 7.82
pIC50 (CYP3A4 [2]): 8.00

CCOc1ccncc1NS(=O)(=O)c1ccccc1C(=O)NC(C)(C)CC [Example 105, N-(1,1-dimethylpropyl)-2-{[(4-ethoxypyridin-3-yl)amino]sulfonyl}benzamide]
pKi (CYP3A4 [1]; [3]): 7.08
pKi (CYP3A4 [1]; [4]): 7.54
pIC50 (CYP3A4 [2]): 7.68

COCCN(C(=O)c1ccccc1S(=O)(=O)Nc1cnccc1OC)C(C)C [Example 127, N-isopropyl-N-(2-methoxyethyl)-2-{[(4-methoxypyridin-3-yl)amino]sulfonyl}benzamide]
pKi (CYP3A4 [1]; [3]): 6.16
pKi (CYP3A4 [1]; [4]): 6.55
pIC50 (CYP3A4 [2]): 6.97

Cc1cncc(NS(=O)(=O)c2ccccc2C(=O)N(C)Cc2ccc(C(F)(F)F)cc2)c1 [Example 145, N-methyl-2-{[(5-methylpyridin-3-yl)amino]sulfonyl}-N-[4-(trifluoromethyl)benzyl]benzamide]
pKi (CYP3A4 [1]; [3]): 7.36
pKi (CYP3A4 [1]; [4]): 8.23
pIC50 (CYP3A4 [2]): 7.74

CCC(C)NC(=O)c1ccccc1S(=O)(=O)Nc1cnccc1OC (stereo not drawn) [Example 120, N-(sec-butyl)-2-{[(4-methoxypyridin-3-yl)amino]sulfonyl}benzamide]
pKi (CYP3A4 [1]; [3]): 6.31
pKi (CYP3A4 [1]; [4]): 6.85
pIC50 (CYP3A4 [2]): 7.07

CC[C@H](C)CNC(=O)c1ccccc1S(=O)(=O)Nc1cncc(OC)c1 [Example 96, 2-{[(5-methoxypyridin-3-yl)amino]sulfonyl}-N-[(2S)-2-methylbutyl]benzamide]
pKi (CYP3A4 [1]; [3]): 6.91
pKi (CYP3A4 [1]; [4]): 7.65
pIC50 (CYP3A4 [2]): 8.05

CC[C@H](C)NC(=O)c1ccccc1S(=O)(=O)Nc1cncc(OC)c1 [Example 102, 2-{[(5-methoxypyridin-3-yl)amino]sulfonyl}-N-[(1S) -1-methylpropyl]benzamide]
pKi (CYP3A4 [1]; [3]): 6.43
pKi (CYP3A4 [1]; [4]): 7.25
pIC50 (CYP3A4 [2]): 7.26

COc1cncc(NS(=O)(=O)c2ccccc2C(=O)NCCc2ccc(C(F)(F)F)c(F)c2)c1 [Example 134, N-{2-[3-fluoro-(trifluoromethyl)phenyl]ethyl}-2-{[(5-methoxypyridin-3-yl)amino]sulfonyl}benzamide]
pKi (CYP3A4 [1]; [3]): 7.16
pKi (CYP3A4 [1]; [4]): 8.06
pIC50 (CYP3A4 [2]): 7.85

COc1cncc(NS(=O)(=O)c2ccccc2C(=O)NCCc2ccc(F)c(F)c2)c1 [Example 137, N-[2-(3,4-difluorophenyl)ethyl]-2-{[(5-methoxypyridin-3-yl)amino]sulfonyl}benzamide]
pKi (CYP3A4 [1]; [3]): 6.94
pKi (CYP3A4 [1]; [4]): 8.14
pIC50 (CYP3A4 [2]): 7.74
